Source: patent US4003915A, “Tricyclic imines” (Hoffmann-La Roche Inc., priority 1970, dated 1977)

Key:
[1] = LD50 in mice on oral administration (toxicity); conditions: mouse, in vivo
[2] = anticonvulsant properties (no test described); conditions: in words
[3] = diuretic activity; conditions: in words
[4] = anticholinergic activity; conditions: in words
[5] = antidepressant activity; conditions: in words
[6] = antitussive activity; conditions: in words
[7] = anti-Parkinson activity; conditions: in words

Compound	LD50 [1]	anticholinergic activity [4]	antidepressant activity [5]	activity against Parkinsonism [7]	further results
CN(C)CCN=C1c2ccccc2CCc2c(Br)cccc21 [1-bromo-N-(2-dimethylamino-ethyl)-10,11-dihydro-5H-dibenzo[a,d]cyclohepten-5-imine]	~750 mg/kg	–	–	–	anticonvulsant properties [2]: strong
CCN(CC)CCN=C1c2ccccc2CCc2c(Cl)cccc21 [1-chloro-N-(2-diethylamino-ethyl)-10,11-dihydro-5H-dibenzo[a,d]cyclohepten-5-imine]	–	–	–	–	diuretic activity [3]: strong
CN(C)CCN=C1c2ccccc2CCc2c(Cl)cccc21 [1-chloro-N-(2-dimethylamino-ethyl)-10,11-dihydro-5H-dibenzo[a,d]cyclohepten-5-imine]	~750 mg/kg	very weak	acts principally as an antidepressant	–	–
CCN(CC)CCN=C1c2ccccc2CCc2ccc(Cl)cc21 [3-chloro-N-(2-diethylamino-ethyl)-10,11-dihydro-5H-dibenzo[a,d]cyclohepten-5-imine]	–	–	–	–	antitussive activity [6]: strong
CN(C)CCN=C1c2ccccc2CCc2ccc(Cl)cc21 [3-chloro-N-(2-dimethylamino-ethyl)-10,11-dihydro5H-dibenzo[a,d]cyclohepten-5-imine]	–	strong	strong	very active	–
CN(C)CCN=C1c2ccccc2CCc2ccccc21 [N-(2-dimethylamino-ethyl)-10,11-dihydro-5H-dibenzo[a,d]cyclohepten-5-imine]	–	–	–	very active	central and peripheral anticholinergic activity ([4]; central and peripheral): strong
